Measured values from article PMC13308190, “Endothelial progenitor cell susceptibility to DNA damaging and DDR-modulating compounds determines endothelial differentiation accuracy” (Stem Cell Research & Therapy, 2026).

Key:
Assay type in all cases: cell-based, mouse
[1] = system: EC d6 (endothelial-like cells); assay: RT-qPCR mRNA expression; details: for Cdkn1a mRNA / Cdkn2a mRNA / Glb1 mRNA / Il6 mRNA / Il8 mRNA / Tp53 mRNA: Fig 7C; for Atp7a mRNA / Atp7b mRNA / Ctr2 mRNA / Mdr1 mRNA / Mrp1 mRNA / Oct2 mRNA: Fig 2D
Protocol: Total RNA was purified using the RNeasy Mini Kit (Qiagen, Hilden, Germany). Reverse transcriptase (RT) reaction was performed with the HighCapacity cDNA Reverse Transcription Kit (Applied Biosystems, Darmstadt, Germany) using 900–2000 ng of RNA. Quantitative RT-qPCR analysis was performed using following conditions: (1) 95 °C–10 min; (2) 45 amplification cycles with 95 °C–15 s, 55 °C–15 s, and 72 °C–17 s; (3) 95 °C–1 min, 55 °C–1 min, 65 °C–5 s. If not stated otherwise, analyses were performed in technical triplicates using pooled samples from two independent experiments (each performed with biological duplicates) by use of a CFX96 cycler (BioRad) and the SensiMix SYBR Kit (Bioline, London, UK). The primers used for mRNA expression analyses are listed in Supplementary Table 1. To ensure the specificity of the amplification product, melting curves were recorded at the end of the run. mRNA expression levels were normalized to β-Actin and Gapdh. Relative mRNA expression in mESC or corresponding untreated controls was set to 1.0. Only changes in gene expression of ≤ 0.5- and ≥ 2-fold were considered as biologically relevant.

EC d4 [2] = assay: ZO1 tight junction immunofluorescence; details: EC d4 treated 48 h
mESC = assay: Western blot protein expression (densitometry); details: mESC 24 h
Protocol: (§1) Total protein cell extracts were obtained upon sonication in RIPA buffer (EpiShearTM Probe sonicator, Active Motif [La Hulpe, Belgium]). Protein concentrations were determined using the DC Protein Assay (BioRad [Munich, Germany]). Extracts were supplemented with Roti®-Load buffer (Carl Roth GmbH [Karlsruhe, Germany]) followed by heating (95 °C for 5 min). 20 µg of protein was separated by SDS-PAGE and transferred onto nitrocellulose membrane. After blocking (5% non-fat milk in TBS/0.1% Tween 20 or 5% BSA in TBS/0.1% Tween 20) (1 h, RT) membrane was incubated with primary antibodies (1:500–5000; overnight, 4 °C). After washing with TBS/0.1% Tween 20, peroxidase-conjugated secondary antibody (1:2000) was added (2 h, RT) and bands were visualized using ChemiDoxTM Touch imaging system (BioRad, Munich, Germany).

[3] = system: EC d6 (endothelial-like cells); assay: Western blot protein expression (densitometry); details: EC d6 24 h; for CHK1 protein / RAD51 protein / gH2AX protein / p-CHK2 protein / p-KAP1 protein / p-RPA32 protein / p-p53 protein: Fig 5D
Protocol: as §1

[4] = system: EC d4 (endothelial progenitor cells); assay: Western blot protein expression (densitometry); details: EC d4 48 h; for CHK1 protein / RAD51 protein / gH2AX protein / p-CHK2 protein / p-KAP1 protein / p-RPA32 protein / p-p53 protein: Fig 5D
Protocol: as §1

EC d4 [5] = assay: EdU incorporation (S-phase activity); details: EC d4 48 h
Protocol: S-phase activity of cells was monitored by measuring EdU incorporation using the EdU-Click 488 assay according to the manufacturer’s protocol. Briefly, cells were pulse-treated with 5-ethynyl-2′-deoxyuridine (EdU) for 3 h. Alexa Fluor 488-conjugated reaction cocktail was added (30 min, RT) and nuclei were counterstained with DAPI. The percentage of EdU-positive area/DAPI-positive area was calculated by fluorescence microscopy (Olympus BX43, 20x objective).

[6] = EC d6 + 0.05 µM 24 h + 24 h post incubation
[7] = EC d6 + 0.1 µM 24 h + 24 h post incubation
[8] = Fig 5D, concentration 1 (Dox 1/B02 1/EST 1)
[9] = Fig 5D, concentration 2 (Dox 2/B02 2/EST 2)
[10] = concentration 1 (Dox 1/B02 1/EST 1)
[11] = concentration 2 (Dox 2/B02 2/EST 2)

SMILES: COc1cccc2c1C(=O)c1c(O)c3c(c(O)c1C2=O)C[C@@](O)(C(=O)CO)C[C@@H]3O[C@H]1C[C@H](N)[C@H](O)[C@H](C)O1 [Dox, doxorubicin]
- Cdkn1a mRNA [1, 6]: 4.38 Fold of untreated control
- Cdkn2a mRNA [1, 6]: 1.77 Fold of untreated control
- Glb1 mRNA [1, 6]: 1.49 Fold of untreated control
- Il6 mRNA [1, 6]: 1.91 Fold of untreated control
- Il8 mRNA [1, 6]: 1.31 Fold of untreated control
- Tp53 mRNA [1, 6]: 1.15 Fold of untreated control
- Atp7a mRNA ([1]; EC d6 + 0.05 µM 24 h): 1.47 Fold of control
- Atp7b mRNA ([1]; EC d6 + 0.05 µM 24 h): 0.99 Fold of control
- Ctr2 mRNA ([1]; EC d6 + 0.05 µM 24 h): 1.13 Fold of control
- Mdr1 mRNA ([1]; EC d6 + 0.05 µM 24 h): 4.89 Fold of control
- Mrp1 mRNA ([1]; EC d6 + 0.05 µM 24 h): 1.23 Fold of control
- Oct2 mRNA ([1]; EC d6 + 0.05 µM 24 h): 0.25 Fold of control
- Gpx1 mRNA ([1]; EC d6 + 0.05 µM 24 h, Fig 6C): 1.10 Fold of untreated control
- Gpx4 mRNA ([1]; EC d6 + 0.05 µM 24 h, Fig 6C): 1.68 Fold of untreated control
- Gstm1 mRNA ([1]; EC d6 + 0.05 µM 24 h, Fig 6C): 2.52 Fold of untreated control
- Hmox1 mRNA ([1]; EC d6 + 0.05 µM 24 h, Fig 6C): 2.63 Fold of untreated control
- Pgc1a mRNA ([1]; EC d6 + 0.05 µM 24 h, Fig 6C): 10.96 Fold of untreated control
- Sod1 mRNA ([1]; EC d6 + 0.05 µM 24 h, Fig 6C): 2.60 Fold of untreated control
- Sod2 mRNA ([1]; EC d6 + 0.05 µM 24 h, Fig 6C): 1.17 Fold of untreated control
- Slc7a11 mRNA ([1]; EC d6 + 0.05 µM 24 h, Fig 6F): 0.82 Fold of untreated control
- Cdkn1a mRNA [1, 7]: 5.67 Fold of untreated control
- Cdkn2a mRNA [1, 7]: 2.66 Fold of untreated control
- Glb1 mRNA [1, 7]: 1.97 Fold of untreated control
- Il6 mRNA [1, 7]: 3.23 Fold of untreated control
- Il8 mRNA [1, 7]: 1.15 Fold of untreated control
- Tp53 mRNA [1, 7]: 1.09 Fold of untreated control
- Atp7a mRNA ([1]; EC d6 + 0.1 µM 24 h): 1.77 Fold of control
- Atp7b mRNA ([1]; EC d6 + 0.1 µM 24 h): 1.11 Fold of control
- Ctr2 mRNA ([1]; EC d6 + 0.1 µM 24 h): 1.27 Fold of control
- Mdr1 mRNA ([1]; EC d6 + 0.1 µM 24 h): 11.55 Fold of control
- Mrp1 mRNA ([1]; EC d6 + 0.1 µM 24 h): 1.40 Fold of control
- Oct2 mRNA ([1]; EC d6 + 0.1 µM 24 h): 1.39 Fold of control
- Brca1 mRNA ([1]; EC d6 + 0.1 µM 24 h, Fig 5C): 0.45 Fold of mESC
- Chk1 mRNA ([1]; EC d6 + 0.1 µM 24 h, Fig 5C): 0.43 Fold of mESC
- Rad51 mRNA ([1]; EC d6 + 0.1 µM 24 h, Fig 5C): 0.48 Fold of mESC
- Pgc1a mRNA ([1]; EC d6 + 0.1 µM 24 h, Fig 6D): 21.56 Fold of untreated control
- Gpx4 mRNA ([1]; EC d6 + 0.1 µM 24 h, Fig 6F): 0.99 Fold of untreated control
- Slc7a11 mRNA ([1]; EC d6 + 0.1 µM 24 h, Fig 6F): 1.09 Fold of untreated control
- Cldn5 mRNA ([1]; EC d6 + 0.1 µM 24 h, Fig 8C): 2.50 Fold of EC d4 or d6
- Ocln mRNA ([1]; EC d6 + 0.1 µM 24 h, Fig 8C): 1.79 Fold of EC d4 or d6
- Tjp1 mRNA ([1]; EC d6 + 0.1 µM 24 h, Fig 8C): 1.21 Fold of EC d4 or d6
- ZO1 containing tight junctions in EC d6 differentiated from treated EC d4 (EC d4 [2]): fragmented / interrupted ZO1 containing tight junctions
- H3ac protein (mESC; Fig 1D): 0.3 Fold of mESC
- H4ac protein (mESC; Fig 1D): 0.0 Fold of mESC
- aTubac (acetylated α-Tubulin) protein (mESC; Fig 1D): 0.5 Fold of mESC
- CHK1 protein (mESC; Fig 4H, Dox 2): 1.3 Fold of mESC
- p-ATR protein (mESC; Fig 4H, Dox 2): 2.7 Fold of mESC
- p-CHK1 protein (mESC; Fig 4H, Dox 2): 4.4 Fold of mESC
- p-RPA32 protein (mESC; Fig 4H, Dox 2): 1.5 Fold of mESC
- p-p53 protein (mESC; Fig 4H, Dox 2): 6.5 Fold of mESC
- CHK1 protein (mESC; Fig 4H, Eto, Dox 1, B02, EST): 1.0 Fold of mESC
- p-ATR protein (mESC; Fig 4H, Eto, Dox 1, B02, EST): 1.9 Fold of mESC
- p-CHK1 protein (mESC; Fig 4H, Eto, Dox 1, B02, EST): 2.4 Fold of mESC
- p-RPA32 protein (mESC; Fig 4H, Eto, Dox 1, B02, EST): 1.1 Fold of mESC
- p-p53 protein (mESC; Fig 4H, Eto, Dox 1, B02, EST): 6.4 Fold of mESC
- CHK1 protein (mESC; [8]): 1.7 Fold of mESC
- RAD51 protein (mESC; [8]): 1.2 Fold of mESC
- gH2AX protein (mESC; [8]): 69.7 Fold of mESC
- p-CHK2 protein (mESC; [8]): 1.1 Fold of mESC
- p-KAP1 protein (mESC; [8]): 31.2 Fold of mESC
- p-RPA32 protein (mESC; [8]): 1.4 Fold of mESC
- p-p53 protein (mESC; [8]): 4.2 Fold of mESC
- CHK1 protein (mESC; [9]): 1.8 Fold of mESC
- RAD51 protein (mESC; [9]): 0.9 Fold of mESC
- gH2AX protein (mESC; [9]): 174.9 Fold of mESC
- p-CHK2 protein (mESC; [9]): 1.5 Fold of mESC
- p-KAP1 protein (mESC; [9]): 59.9 Fold of mESC
- p-RPA32 protein (mESC; [9]): 1.8 Fold of mESC
- p-p53 protein (mESC; [9]): 5.7 Fold of mESC
- AMPKa protein (mESC; Fig 6E): 0.2 Fold of mESC
- GSK3b protein (mESC; Fig 6E): 0.8 Fold of mESC
- p-p70SK protein (mESC; Fig 6E): 1.1 Fold of mESC
- H3ac protein ([3]; Fig 1D): 0.0 Fold of mESC
- H4ac protein ([3]; Fig 1D): 0.0 Fold of mESC
- aTubac (acetylated α-Tubulin) protein ([3]; Fig 1D): 0.6 Fold of mESC
- CHK1 protein [3, 10]: 1.7 Fold of mESC
- RAD51 protein [3, 10]: 1.7 Fold of mESC
- gH2AX protein [3, 10]: 4.6 Fold of mESC
- p-CHK2 protein [3, 10]: 0.8 Fold of mESC
- p-KAP1 protein [3, 10]: 0.0 Fold of mESC
- p-RPA32 protein [3, 10]: 0.2 Fold of mESC
- p-p53 protein [3, 10]: 4.2 Fold of mESC
- CHK1 protein [3, 11]: 1.0 Fold of mESC
- RAD51 protein [3, 11]: 1.3 Fold of mESC
- gH2AX protein [3, 11]: 31.8 Fold of mESC
- p-CHK2 protein [3, 11]: 0.5 Fold of mESC
- p-KAP1 protein [3, 11]: 0.0 Fold of mESC
- p-RPA32 protein [3, 11]: 0.1 Fold of mESC
- p-p53 protein [3, 11]: 3.1 Fold of mESC
- AMPKa protein ([3]; Fig 6E): 0.6 Fold of mESC
- GSK3b protein ([3]; Fig 6E): 4.3 Fold of mESC
- p-p70SK protein ([3]; Fig 6E): 2.8 Fold of mESC
- H3ac protein ([4]; Fig 1D): 0.0 Fold of mESC
- H4ac protein ([4]; Fig 1D): 0.0 Fold of mESC
- aTubac (acetylated α-Tubulin) protein ([4]; Fig 1D): 0.3 Fold of mESC
- CHK1 protein [4, 10]: 2.1 Fold of mESC
- RAD51 protein [4, 10]: 0.1 Fold of mESC
- gH2AX protein [4, 10]: 142.6 Fold of mESC
- p-CHK2 protein [4, 10]: 0.7 Fold of mESC
- p-KAP1 protein [4, 10]: 0.0 Fold of mESC
- p-RPA32 protein [4, 10]: 0.5 Fold of mESC
- p-p53 protein [4, 10]: 2.0 Fold of mESC
- CHK1 protein [4, 11]: 0.2 Fold of mESC
- RAD51 protein [4, 11]: < 0.1 Fold of mESC
- gH2AX protein [4, 11]: 44.9 Fold of mESC
- p-CHK2 protein [4, 11]: 0.2 Fold of mESC
- p-KAP1 protein [4, 11]: 0.0 Fold of mESC
- p-RPA32 protein [4, 11]: 0.1 Fold of mESC
- p-p53 protein [4, 11]: 2.6 Fold of mESC
- AMPKa protein ([4]; Fig 6E): 0.7 Fold of mESC
- GSK3b protein ([4]; Fig 6E): 5.7 Fold of mESC
- p-p70SK protein ([4]; Fig 6E): 0.5 Fold of mESC
- S-phase activity (EdU-positive cells) (EC d4 [5]): decrease in S-phase activity
